Assay results taken from ChEMBL document CHEMBL5344406, “1,2,3-Triazole-containing hybrids with potential antibacterial activity against ESKAPE pathogens” (2022).
In brackets after ≈: the same amount, converted by molar mass.

How the values were obtained:
Type in all cases: functional
Escherichia coli [1] = assay: Antibacterial activity against multidrug-resistant Escherichia coli assessed as bacterial growth inhibition incubated for 24 hrs by […] method
Pseudomonas aeruginosa [2] = assay: Antibacterial activity against Pseudomonas aeruginosa assessed as bacterial growth inhibition incubated for 24 hrs by spectrophotometry
Escherichia coli [3] = assay: Antibacterial activity against Escherichia coli assessed as bacterial growth inhibition incubated for 24 hrs by spectrophotometry
Bacillus subtilis [4] = assay: Antibacterial activity against Bacillus subtilis assessed as bacterial growth inhibition incubated for 24 hrs by spectrophotometry
Staphylococcus aureus [5] = assay: Antibacterial activity against Staphylococcus aureus assessed as bacterial growth inhibition incubated for 24 hrs by spectrophotometry
Staphylococcus aureus [6] = assay: Antibacterial activity against methicillin-resistant Staphylococcus aureus ATCC 43300 infected in neutropenic mouse model of thigh infection assessed as reduction in bacterial load at 20 mg/kg, iv measured after 24 hrs by colony counting method
Staphylococcus aureus [7] = assay: Antibacterial activity against Staphylococcus aureus ATCC 43300 assessed as bacterial growth inhibition incubated for 24 hrs by CLSI based broth dilution method
Staphylococcus aureus [8] = assay: Potency index, ratio of Pleuromutilin MIC to test compound MIC for antibacterial activity against Staphylococcus aureus clinical isolate AD3 incubated for 24 hrs by CLSI based broth dilution method
Staphylococcus aureus [9] = assay: Antibacterial activity against Staphylococcus aureus clinical isolate 144 assessed as bacterial growth inhibition incubated for 24 hrs by CLSI based broth dilution method
Staphylococcus aureus [10] = assay: Potency index, ratio of Pleuromutilin MIC to test compound MIC for antibacterial activity against Staphylococcus aureus clinical isolate 144 incubated for 24 hrs by CLSI based broth dilution method
Staphylococcus aureus [11] = assay: Potency index, ratio of Pleuromutilin MIC to test compound MIC for antibacterial activity against Staphylococcus aureus ATCC 29213 incubated for 24 hrs by CLSI based broth dilution method
Staphylococcus aureus [12] = assay: Antibacterial activity against Staphylococcus aureus clinical isolate AD3 assessed as bacterial growth inhibition incubated for 24 hrs by CLSI based broth dilution method
Staphylococcus aureus [13] = assay: Potency index, ratio of Pleuromutilin MIC to test compound MIC for antibacterial activity against Staphylococcus aureus ATCC 43300 incubated for 24 hrs by CLSI based broth dilution method
Staphylococcus aureus [14] = assay: Antibacterial activity against Staphylococcus aureus ATCC 29213 assessed as bacterial growth inhibition incubated for 24 hrs by CLSI based broth dilution method
Klebsiella pneumoniae [15] = assay: Antibacterial activity against Klebsiella pneumoniae assessed as bacterial growth inhibition by broth microdilution method
Escherichia coli [16] = assay: Antibacterial activity against Escherichia coli assessed as bacterial growth inhibition by broth microdilution method
Staphylococcus aureus [17] = assay: Antibacterial activity against Staphylococcus aureus assessed as bacterial growth inhibition by broth microdilution method
Bacillus subtilis [18] = assay: Antibacterial activity against Bacillus subtilis assessed as bacterial growth inhibition by broth microdilution method
Pseudomonas aeruginosa [19] = assay: Antibacterial activity against Pseudomonas aeruginosa ATCC 10145 assessed as bacterial growth inhibition measured for 5 to 20 mins by broth dilution method; conditions: time 5-20 min
Pseudomonas aeruginosa [20] = assay: Antibacterial activity against Pseudomonas aeruginosa assessed as bacterial growth inhibition by broth microdilution method
Staphylococcus aureus [21] = assay: Antibacterial activity against Staphylococcus aureus ATCC 43300 assessed as bacterial growth inhibition measured for 5 to 20 mins by broth dilution method; conditions: time 5-20 min
Staphylococcus aureus [22] = assay: Potency index, ratio of azithromycin MIC to test compound MIC for antibacterial activity against penicillin-resistant Staphylococcus aureus ATCC 31007 assessed as bacterial growth inhibition incubated for 24 hrs by CLSI based broth microdilution method
Staphylococcus aureus [23] = assay: Antibacterial activity against penicillin-resistant Staphylococcus aureus ATCC 31007 assessed as bacterial growth inhibition incubated for 24 hrs by CLSI based broth microdilution method
Streptococcus pneumoniae [24] = assay: Antibacterial activity against erythromycin-resistant Streptococcus pneumoniae AB11 expressing ermB/mefA assessed as bacterial growth inhibition incubated for 24 hrs by CLSI based broth microdilution method
Staphylococcus aureus [25] = assay: Antibacterial activity against Staphylococcus aureus clinical isolate assessed as bacterial growth inhibition by disk diffusion method
Staphylococcus aureus [26] = assay: Potency index, ratio of azithromycin MIC to test compound MIC for antibacterial activity against methicillin-resistant Staphylococcus aureus ATCC 43300 assessed as bacterial growth inhibition incubated for 24 hrs by CLSI based broth microdilution method
Staphylococcus aureus [27] = assay: Antibacterial activity against methicillin-resistant Staphylococcus aureus ATCC 43300 assessed as bacterial growth inhibition incubated for 24 hrs by CLSI based broth microdilution method
Streptococcus pneumoniae [28] = assay: Potency index, ratio of azithromycin MIC to test compound MIC for antibacterial activity against erythromycin-resistant Streptococcus pneumoniae B1 expressing ermB assessed as bacterial growth inhibition incubated for 24 hrs by CLSI based broth microdilution method
Streptococcus pneumoniae [29] = assay: Antibacterial activity against erythromycin-resistant Streptococcus pneumoniae B1 expressing ermB assessed as bacterial growth inhibition incubated for 24 hrs by CLSI based broth microdilution method
Streptococcus pyogenes [30] = assay: Potency index, ratio of azithromycin MIC to test compound MIC for antibacterial activity against erythromycin-resistant Streptococcus pyogenes clinical isolate 2 assessed as bacterial growth inhibition incubated for 24 hrs by CLSI based broth microdilution method
Streptococcus pneumoniae [31] = assay: Potency index, ratio of azithromycin MIC to test compound MIC for antibacterial activity against erythromycin-resistant Streptococcus pneumoniae AB11 expressing ermB/mefA assessed as bacterial growth inhibition incubated for 24 hrs by CLSI based broth microdilution method
Streptococcus pyogenes [32] = assay: Antibacterial activity against erythromycin-resistant Streptococcus pyogenes clinical isolate 2 assessed as bacterial growth inhibition incubated for 24 hrs by CLSI based broth microdilution method
Escherichia coli [33] = assay: Antibacterial activity against Escherichia coli clinical isolate assessed as bacterial growth inhibition by disk diffusion method
Staphylococcus aureus [34] = assay: Antibacterial activity against Staphylococcus aureus MTCC 737 assessed as bacterial growth inhibition by serial dilution method
Escherichia coli [35] = assay: Antibacterial activity against Escherichia coli ATCC 25922 assessed as bacterial growth inhibition by broth microdilution method
[36] = tested on: Staphylococcus epidermidis; assay: Antibacterial activity against Staphylococcus epidermidis assessed as bacterial growth inhibition by serial dilution method
Staphylococcus aureus [37] = assay: Antibacterial activity against Staphylococcus aureus MTCC 96 assessed as bacterial growth inhibition by broth microdilution method
Klebsiella pneumoniae [38] = assay: Antibacterial activity against Klebsiella pneumoniae NCDC 138 assessed as bacterial growth inhibition incubated for 24 hrs by serial dilution method
Pseudomonas aeruginosa [39] = assay: Antibacterial activity against Pseudomonas aeruginosa MTCC 1688 assessed as bacterial growth inhibition by broth microdilution method
Staphylococcus aureus [40] = assay: Antibacterial activity against Staphylococcus aureus assessed as bacterial growth inhibition by agar well diffusion method
Bacillus subtilis [41] = assay: Antibacterial activity against Bacillus subtilis MTCC 441 assessed as bacterial growth inhibition incubated for 24 hrs by serial dilution method
Bacillus subtilis [42] = assay: Antibacterial activity against Bacillus subtilis assessed as bacterial growth inhibition by serial dilution method
Staphylococcus aureus [43] = assay: Antibacterial activity against Staphylococcus aureus ATCC 25923 assessed as bacterial growth inhibition by broth microdilution method
Bacillus subtilis [44] = assay: Antibacterial activity against Bacillus subtilis assessed as bacterial growth inhibition by agar well diffusion method
Escherichia coli [45] = assay: Antibacterial activity against Escherichia coli MTCC 443 assessed as bacterial growth inhibition by broth microdilution method
Escherichia coli [46] = assay: Antibacterial activity against Escherichia coli assessed as bacterial growth inhibition by serial dilution method
Pseudomonas aeruginosa [47] = assay: Antibacterial activity against Pseudomonas aeruginosa assessed as bacterial growth inhibition
Escherichia coli [48] = assay: Antibacterial activity against Escherichia coli MTCC 1687 assessed as bacterial growth inhibition by serial dilution method
Bacillus subtilis [49] = assay: Antibacterial activity against Bacillus subtilis assessed as bacterial growth inhibition incubated for 24 hrs by serial dilution method
Streptococcus pyogenes [50] = assay: Antibacterial activity against Streptococcus pyogenes MTCC 442 assessed as bacterial growth inhibition by broth microdilution method
Bacillus subtilis [51] = assay: Antibacterial activity against Bacillus subtilis ATCC 6633 assessed as bacterial growth inhibition incubated for 18 to 24 hrs by turbidimetry; conditions: time 18-24 hrs
Salmonella enterica = assay: Antibacterial activity against Salmonella enterica assessed as bacterial growth inhibition incubated for 24 hrs by serial dilution method
Pseudomonas aeruginosa [52] = assay: Antibacterial activity against Pseudomonas aeruginosa assessed as bacterial growth inhibition by broth dilution method
Klebsiella pneumoniae [53] = assay: Antibacterial activity against Klebsiella pneumoniae assessed as bacterial growth inhibition by broth dilution method
Staphylococcus aureus [54] = assay: Antibacterial activity against methicillin-resistant Staphylococcus aureus assessed as bacterial growth inhibition by agar dilution method

With Clc1cccc(Cn2cc(COc3ccc(-c4nc5ccccc5s4)cc3)nn2)c1 the MIC (Escherichia coli [1]) was 8.02 µg/mL (≈ 18.5 µM).

Work on Cc1c(C(=O)/C=C/c2ccc(Cl)cc2)nnn1-c1ccc(Cl)c(Cl)c1 yielded an MIC (Pseudomonas aeruginosa [2]) of 1.3 µg/mL (≈ 3.31 µM), an MIC (Escherichia coli [3]) of 1.3 µg/mL (≈ 3.31 µM) and an MIC (Bacillus subtilis [4]) of 1.3 µg/mL (≈ 3.31 µM). The MIC (Staphylococcus aureus [5]) was 1.3 µg/mL (≈ 3.31 µM).

Work on C=C[C@]1(C)C[C@@H](OC(=O)CN2CCN(C(=O)Cn3cc(CN4CCN(c5ccc([N+](=O)[O-])cc5)CC4)nn3)CC2)[C@@]2(C)[C@@H]3C(=O)CC[C@@]3(CC[C@@H]2C)[C@@H](C)[C@@H]1O yielded an Activity (Staphylococcus aureus [6]) of -2.07 log10CFU/ml, an MIC (Staphylococcus aureus [7]) of 1 µg/mL (≈ 1.29 µM) and a Ratio (Staphylococcus aureus [8]) of 2. The MIC (Staphylococcus aureus [9]) was 1 µg/mL (≈ 1.29 µM), the Ratio (Staphylococcus aureus [10]) was 2 and the Ratio (Staphylococcus aureus [11]) was 2. For the same molecule, the MIC (Staphylococcus aureus [12]) was 1 µg/mL (≈ 1.29 µM), the Ratio (Staphylococcus aureus [13]) was 2 and the MIC (Staphylococcus aureus [14]) was 1 µg/mL (≈ 1.29 µM).

CC1(C)S[C@@H]2[C@H](NC(=O)[C@H](N)c3ccc(O)cc3)C(=O)N2[C@H]1C(=O)O [AMOXICILLIN] gave an MIC (Klebsiella pneumoniae [15]) of 25 µg/mL (≈ 68.4 µM), an MIC (Escherichia coli [16]) of 25 µg/mL (≈ 68.4 µM) and an MIC (Staphylococcus aureus [17]) of 25 µg/mL (≈ 68.4 µM).

CC1(C)S[C@@H]2[C@H](NC(=O)[C@H](N)c3ccccc3)C(=O)N2[C@H]1C(=O)O [AMPICILLIN] showed an MIC (Bacillus subtilis [18]) of 4 µg/mL (≈ 11.4 µM), an MIC (Escherichia coli [16]) of 4 µg/mL (≈ 11.4 µM) and an MIC (Pseudomonas aeruginosa [19]) of 5 µg/mL (≈ 14.3 µM). The MIC (Staphylococcus aureus [17]) was 4 µg/mL (≈ 11.4 µM), the MIC (Pseudomonas aeruginosa [20]) was 1 µg/mL (≈ 2.86 µM) and the MIC (Staphylococcus aureus [21]) was 2.5 µg/mL (≈ 7.15 µM).

With O=C(N[C@H](CO)[C@H](O)c1ccc([N+](=O)[O-])cc1)C(Cl)Cl [CHLORAMPHENICOL] the Ratio (Staphylococcus aureus [22]) was greater than 16, the MIC (Staphylococcus aureus [23]) was greater than 256 µg/mL and the MIC (Streptococcus pneumoniae [24]) was greater than 256 µg/mL. It also gave an MIC (Staphylococcus aureus [25]) of 11.6 µg/mL (≈ 35.9 µM), a Ratio (Staphylococcus aureus [26]) greater than 16 and an MIC (Staphylococcus aureus [27]) greater than 256 µg/mL. The Ratio (Streptococcus pneumoniae [28]) was greater than 16, the MIC (Streptococcus pneumoniae [29]) was greater than 256 µg/mL and the Ratio (Streptococcus pyogenes [30]) was greater than 16. It also gave a Ratio (Streptococcus pneumoniae [31]) greater than 16, an MIC (Streptococcus pyogenes [32]) greater than 256 µg/mL and an MIC (Escherichia coli [33]) of 22.4 µg/mL (≈ 69.3 µM).

Work on O=C(O)c1cn(C2CC2)c2cc(N3CCNCC3)c(F)cc2c1=O [CIPROFLOXACIN] yielded an MIC (Staphylococcus aureus [34]) of 12.5 µg/mL (≈ 37.7 µM), an MIC (Escherichia coli [35]) of 11 µg/mL (≈ 33.2 µM) and an MIC [36] of 25 µg/mL (≈ 75.4 µM). The MIC (Staphylococcus aureus [37]) was 24.9 µg/mL (≈ 75.1 µM), the MIC (Klebsiella pneumoniae [38]) was 6.25 µg/mL (≈ 18.9 µM) and the MIC (Pseudomonas aeruginosa [39]) was 24.9 µg/mL (≈ 75.1 µM). It also gave an MIC (Staphylococcus aureus [40]) of 0.5 µg/mL (≈ 1.51 µM), an MIC (Bacillus subtilis [41]) of 6.25 µg/mL (≈ 18.9 µM) and an MIC (Bacillus subtilis [42]) of 25 µg/mL (≈ 75.4 µM). For the same molecule, the MIC (Staphylococcus aureus [43]) was 12 µg/mL (≈ 36.2 µM), the MIC (Bacillus subtilis [44]) was 0.5 µg/mL (≈ 1.51 µM) and the MIC (Escherichia coli [45]) was 24.9 µg/mL (≈ 75.1 µM). The MIC (Escherichia coli [46]) was 25 µg/mL (≈ 75.4 µM), the MIC (Pseudomonas aeruginosa [47]) was 1.56 µg/mL (≈ 4.71 µM) and the MIC (Escherichia coli [48]) was 12.5 µg/mL (≈ 37.7 µM). The MIC (Bacillus subtilis [49]) was 6.25 µg/mL (≈ 18.9 µM), the MIC (Streptococcus pyogenes [50]) was 24.9 µg/mL (≈ 75.1 µM) and the MIC (Bacillus subtilis [51]) was 0.125 µg/mL (≈ 0.377 µM). It also gave an MIC (Salmonella enterica) of 6.25 µg/mL (≈ 18.9 µM).

C[C@H]1COc2c(N3CCN(C)CC3)c(F)cc3c(=O)c(C(=O)O)cn1c23 [LEVOFLOXACIN ANHYDROUS] showed an MIC (Pseudomonas aeruginosa [2]) of 33.6 µg/mL (≈ 93 µM), an MIC (Escherichia coli [3]) of 33.6 µg/mL (≈ 93 µM) and an MIC (Bacillus subtilis [4]) of 33.6 µg/mL (≈ 93 µM). The MIC (Staphylococcus aureus [5]) was 33.6 µg/mL (≈ 93 µM).

CC1(C)S[C@@H]2[C@H](NC(=O)Cc3ccccc3)C(=O)N2[C@H]1C(=O)O [PENICILLIN G] showed an MIC (Pseudomonas aeruginosa [52]) of 18.8 µg/mL (≈ 56.1 µM) and an MIC (Klebsiella pneumoniae [53]) of 9.37 µg/mL (≈ 28 µM).

Molecule COc1cc(/C=C/c2ccc(O)cc2)cc(OC)c1 [PTEROSTILBENE] has an MIC (Staphylococcus aureus [54]) of 41 µg/mL (≈ 160 µM).
